Legend:
[1] = target: T1, Phospho-KIT (Tyr719) in GIST882 cells (Homo sapiens, UniProt P10721, K642E); assay: GIST882 KIT Western Blot; format: cell-based; conditions: 4 hours, read-out: pKIT suppression by western blot analysi GIST 882
T1 construct: endogenous in cells; host or cells: GIST882
Method: (§1) GIST48, GIST430, and GIST882 cells were obtained from J. Fletcher (Brigham and Women's Hospital, Boston, Mass.). GIST T1 cells were obtained from B. Rubin (Cleveland Clinic, Cleveland, Ohio) and Professor Takahiro Taguchi (Kochi Medical School, Nankoku, Kochi, Japan). […] GIST430 cells were grown in Ham's F10 medium supplemented with 15% characterized fetal bovine serum (Invitrogen, Carlsbad, Calif.), 30 mg/L bovine pituitary extract (BD Biosciences, San Jose, Calif.), 0.5% Mito+ serum extender (BD Biosciences, San Jose, Calif.), 1 unit/mL penicillin G, 1 μg/ml streptomycin, and 0.29 mg/mL L-glutamine at 37° C., 5% CO2, 95% humidity. GIST T1 cells were grown in DMEM medium supplemented with 10% characterized fetal bovine serum (Invitrogen, Carlsbad, Calif.), 1 unit/mL penicillin G, 1 ng/ml streptomycin, and 0.29 mg/mL L-glutamine at 37° C., 5% CO2, and 95% humidity. Cells were allowed to expand until reaching 70-95% confluence at which point they were subcultured or harvested for assay use.
Two hundred fifty thousand cells were added per well in a 24-well tissue-culture treated plate. Cells were then incubated overnight at 37° C., 5% CO2, 95% humidity. Medium was aspirated, cells were washed with PBS, and serum-free RPMI1640 medium was added. A serial dilution of test compound was added to plates containing cells and plates were incubated for 4 hours at 37° C., 5% CO2, 95% humidity. Cells were washed with PBS, then lysed. Cell lysates were separated by SDS-PAGE and transferred to PVDF. Phospho-KIT (Tyr719) was detected using an antibody from Cell Signaling Technology (Beverly, Mass.), ECL Plus detection reagent (GE Healthcare, Piscataway, N.J.) and a Molecular Devices Storm 840 phosphorimager in fluorescence mode. Blots were stripped and probed for total KIT using an antibody from Santa Cruz Biotech (Santa Cruz, Calif.). IC50 values were calculated using Prism software (Graphpad, San Diego, Calif.).

[2] = target: T2, c-KIT T670I kinase (Seq ID no. 6) (Homo sapiens, UniProt P10721, T670I); assay: c-KIT T670I Kinase Assay; format: biochemical; conditions: enzymatic assay, ATP 200 uM
T2 construct: GST (N); TEV cleavage site (N); purchased deCODE Biostructures

[3] = target: T3, c-KIT VVDV kinase (V559 and V560 deleted and D816V mutation, Seq ID no. 5) (Homo sapiens, UniProt P10721, D816V/DEL559-560); assay: cKIT-VVDV Kinase Assay; format: biochemical; conditions: enzymatic assay, ATP 200 uM
T3 construct: This construct contains residues T544-V976 of cKit (except for the D816V mutation and the deletion of residues V559 and V560); GST (N); TEV cleavage site (N); purchased deCODE Biostructures
Method: In this assay, the oxidation of NADH (measured by decrease in absorbance at 340 nm) was continuously monitored spectrophotometrically. […] The inhibition reaction was started by mixing serial diluted test compound with the above reaction mixture. The absorption at 340 nm was monitored continuously for 5 hours at 30° C. on Synergy 2 plate reader (BioTech). […] The protein construct was prepared by deCODE Biostructures using procedures known in the art. This construct contains […] of cKit (except for the D816V […]), an N-terminal tag, a GST-fusion sequence and a TEV cleavage site. This construct is identical to Seq ID no. 1 except for the D816V […].

[4] = target: T4, Phospho-KIT (Tyr719) in GIST T1 cells (Homo sapiens, UniProt P10721, DEL560-578); assay: GIST T1 KIT Western Blot; format: cell-based; conditions: 4 hours, read-out: pKIT suppression by western blot analysi GIST T1
T4 construct: endogenous in cells; host or cells: GIST T1
Method: as §1, with “Cells were allowed to expand until reaching 70-95% confluence at which point they were subcultured or harvested for assay use.” left out
One hundred twenty-five thousand cells were added per well in a 24-well tissue-culture treated plate. […] Phospho-KIT (Tyr719) was detected using an antibody from Cell Signaling Technology (Beverly, Mass.), ECL Plus detection reagent (GE Healthcare, Piscataway, N.J.) and a Molecular Devices Storm 840 phosphorimager in fluorescence mode. […] IC50 values were calculated using Prism software (Graphpad, San Diego, Calif.).

T2 sequence (P10721 544-976 T670I): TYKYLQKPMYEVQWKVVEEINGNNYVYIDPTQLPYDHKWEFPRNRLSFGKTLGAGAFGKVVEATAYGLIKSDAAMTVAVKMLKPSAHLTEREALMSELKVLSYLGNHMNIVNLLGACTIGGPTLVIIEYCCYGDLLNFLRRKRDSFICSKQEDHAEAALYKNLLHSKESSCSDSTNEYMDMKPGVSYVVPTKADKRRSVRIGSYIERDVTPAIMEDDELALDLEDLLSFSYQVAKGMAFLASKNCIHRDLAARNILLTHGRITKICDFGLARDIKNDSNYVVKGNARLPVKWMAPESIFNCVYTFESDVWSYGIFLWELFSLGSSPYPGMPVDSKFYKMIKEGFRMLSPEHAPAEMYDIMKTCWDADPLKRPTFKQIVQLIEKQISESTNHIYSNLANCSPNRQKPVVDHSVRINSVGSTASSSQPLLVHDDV
T1 sequence (P10721 26-976 K642E): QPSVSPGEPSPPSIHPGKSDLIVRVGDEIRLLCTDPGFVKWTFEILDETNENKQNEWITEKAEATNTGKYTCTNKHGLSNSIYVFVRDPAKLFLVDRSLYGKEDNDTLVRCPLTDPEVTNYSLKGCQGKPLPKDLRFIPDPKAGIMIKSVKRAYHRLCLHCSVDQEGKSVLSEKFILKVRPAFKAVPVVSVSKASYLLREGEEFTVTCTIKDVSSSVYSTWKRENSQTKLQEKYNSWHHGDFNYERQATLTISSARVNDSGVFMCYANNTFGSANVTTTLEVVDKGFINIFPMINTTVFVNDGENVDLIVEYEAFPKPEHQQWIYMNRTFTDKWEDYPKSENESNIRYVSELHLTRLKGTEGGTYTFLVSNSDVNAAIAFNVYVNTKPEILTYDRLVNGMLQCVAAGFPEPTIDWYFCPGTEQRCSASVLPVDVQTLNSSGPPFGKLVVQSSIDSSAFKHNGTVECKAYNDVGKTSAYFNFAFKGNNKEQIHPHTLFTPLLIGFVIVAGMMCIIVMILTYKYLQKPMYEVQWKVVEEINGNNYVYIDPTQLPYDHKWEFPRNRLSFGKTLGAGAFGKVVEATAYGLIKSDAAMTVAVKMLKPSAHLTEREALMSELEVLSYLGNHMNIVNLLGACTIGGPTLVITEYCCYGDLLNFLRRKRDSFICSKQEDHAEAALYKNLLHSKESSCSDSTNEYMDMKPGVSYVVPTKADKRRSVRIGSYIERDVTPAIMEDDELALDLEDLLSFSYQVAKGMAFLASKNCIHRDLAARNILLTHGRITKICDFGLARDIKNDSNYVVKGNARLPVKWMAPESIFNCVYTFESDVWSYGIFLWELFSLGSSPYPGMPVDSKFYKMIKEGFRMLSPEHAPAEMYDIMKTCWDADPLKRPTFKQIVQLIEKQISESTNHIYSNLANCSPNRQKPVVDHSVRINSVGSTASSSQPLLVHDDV
T3 sequence (P10721 with tags, fused parts or gaps DEL559-560/D816V): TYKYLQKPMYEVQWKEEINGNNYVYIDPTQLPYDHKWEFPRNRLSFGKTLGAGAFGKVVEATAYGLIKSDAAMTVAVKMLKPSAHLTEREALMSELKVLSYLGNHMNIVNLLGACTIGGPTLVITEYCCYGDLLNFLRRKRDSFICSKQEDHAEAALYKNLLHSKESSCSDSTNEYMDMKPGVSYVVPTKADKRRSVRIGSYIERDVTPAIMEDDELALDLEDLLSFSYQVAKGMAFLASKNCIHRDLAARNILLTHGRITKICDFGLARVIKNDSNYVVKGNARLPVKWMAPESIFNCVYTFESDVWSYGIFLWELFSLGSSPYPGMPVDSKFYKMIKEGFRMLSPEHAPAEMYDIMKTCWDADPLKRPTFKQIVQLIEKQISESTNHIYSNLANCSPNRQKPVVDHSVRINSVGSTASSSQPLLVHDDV
T4 sequence (P10721 with tags, fused parts or gaps DEL560-578): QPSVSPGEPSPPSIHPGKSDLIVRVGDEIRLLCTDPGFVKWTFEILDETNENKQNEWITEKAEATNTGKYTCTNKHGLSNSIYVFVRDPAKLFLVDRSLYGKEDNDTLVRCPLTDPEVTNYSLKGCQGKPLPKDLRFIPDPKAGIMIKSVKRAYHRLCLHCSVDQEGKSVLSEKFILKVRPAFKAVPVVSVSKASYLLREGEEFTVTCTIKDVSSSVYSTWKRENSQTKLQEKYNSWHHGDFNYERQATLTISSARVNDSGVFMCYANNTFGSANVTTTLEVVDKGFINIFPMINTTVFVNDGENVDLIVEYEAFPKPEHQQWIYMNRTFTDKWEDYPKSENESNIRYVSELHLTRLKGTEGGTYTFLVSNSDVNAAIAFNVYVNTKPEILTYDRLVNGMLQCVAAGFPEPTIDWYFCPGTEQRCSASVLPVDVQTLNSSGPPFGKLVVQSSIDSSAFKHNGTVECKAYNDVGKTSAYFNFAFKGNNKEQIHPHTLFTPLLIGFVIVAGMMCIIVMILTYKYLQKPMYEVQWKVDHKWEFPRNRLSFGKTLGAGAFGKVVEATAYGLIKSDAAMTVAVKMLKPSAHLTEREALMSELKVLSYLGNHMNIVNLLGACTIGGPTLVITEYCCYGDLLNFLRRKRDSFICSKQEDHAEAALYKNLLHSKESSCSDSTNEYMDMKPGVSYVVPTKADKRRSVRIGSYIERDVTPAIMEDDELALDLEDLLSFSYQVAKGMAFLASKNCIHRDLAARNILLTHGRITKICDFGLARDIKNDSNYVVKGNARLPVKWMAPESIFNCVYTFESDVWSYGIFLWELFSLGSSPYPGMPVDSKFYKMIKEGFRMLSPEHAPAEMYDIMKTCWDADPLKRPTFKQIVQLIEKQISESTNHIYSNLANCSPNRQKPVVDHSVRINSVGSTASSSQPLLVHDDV

IC50 [1] [nM] | IC50 [2] [nM] | IC50 [3] [nM] | IC50 [4] [nM] | SMILES
> 1000 | 10 to 100 | > 1000 | – | CCn1c(=O)c(-c2cc(NC(=O)Nc3cccc(CN4CCN(C)CC4)c3)c(F)cc2Cl)cc2cnc(NC)cc21 [Example 79, 1-(4-chloro-5-(1-ethyl-7-(methylamino)-2-oxo-1,2-dihydro-1,6-naphthyridin-3-yl)-2-fluorophenyl)-3-(3-((4-methylpiperazin-1-yl)methyl)phenyl)urea]
100 to 1000 | 10 to 100 | – | < 10 | CCn1c(=O)c(-c2cc(NC(=O)Nc3cc(F)cc(CN4CCN(C)CC4)c3)c(F)cc2Cl)cc2cnc(NC)cc21 [Example 88, 1-(4-chloro-5-(1-ethyl-7-(methylamino)-2-oxo-1,2-dihydro-1,6-naphthyridin-3-yl)-2-fluorophenyl)-3-(3-fluoro-5-((4-methylpiperazin-1-yl)methyl)phenyl)urea]
10 to 100 | < 10 | < 10 | < 10 | CCn1c(=O)c(-c2cc(NC(=O)Nc3ccccc3)c(F)cc2Cl)cc2cnc(N)cc21 [Example 21, 1-(5-(7-amino-1-ethyl-2-oxo-1,2-dihydro-1,6-naphthyridin-3-yl)-4-chloro-2-fluorophenyl)-3-phenylurea]

— patent US8940756B2, “Dihydronaphthyridines and related compounds useful as kinase inhibitors for the treatment of proliferative diseases” (Deciphera Pharmaceuticals, Inc., priority 2012, dated 2015)
